Tested on: 885724-159-R-J1-PDC complex spheroid viability
Test: Anticancer human tumor 885724-159-R-J1-PDC patient-derived pancreatic adenocarcinoma cell line growth inhibition [POLQ]
Details: for IC50: curve of first compound; for viability, T/C: stronger effect = lower value
How it was run: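 Three-cell-type spheroids modelling solid tumor plus stroma served as the readout system; POL inhibitors were tested individually and in combination, concentration ranges set by clinical Cmax where known.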

[1] = second compound 0.0316 µM, first compound 0.00316 µM
[2] = second compound 0.0316 µM, first compound 0.01 µM
[3] = second compound 0.0316 µM, first compound 0.0316 µM
[4] = second compound 0.0316 µM, first compound 0.1 µM
[5] = second compound 0.1 µM, first compound 0.00316 µM
[6] = second compound 0.1 µM, first compound 0.01 µM
[7] = second compound 0.1 µM, first compound 0.0316 µM
[8] = second compound 0.1 µM, first compound 0.1 µM
[9] = second compound 0.316 µM, first compound 0.00316 µM
[10] = second compound 0.316 µM, first compound 0.01 µM
[11] = second compound 0.316 µM, first compound 0.0316 µM
[12] = second compound 0.316 µM, first compound 0.1 µM
[13] = second compound 1 µM, first compound 0.00316 µM
[14] = second compound 1 µM, first compound 0.01 µM
[15] = second compound 1 µM, first compound 0.0316 µM
[16] = second compound 1 µM, first compound 0.1 µM
[17] = second compound 3.16 µM, first compound 0.00316 µM
[18] = second compound 3.16 µM, first compound 0.01 µM
[19] = second compound 3.16 µM, first compound 0.0316 µM
[20] = second compound 3.16 µM, first compound 0.1 µM
[21] = second compound 10 µM, first compound 0.00316 µM
[22] = second compound 10 µM, first compound 0.01 µM
[23] = second compound 10 µM, first compound 0.0316 µM
[24] = second compound 10 µM, first compound 0.1 µM
[25] = second compound 0.0316 µM, first compound 0.316 µM
[26] = second compound 0.0316 µM, first compound 1 µM
[27] = second compound 0.1 µM, first compound 0.316 µM
[28] = second compound 0.1 µM, first compound 1 µM
[29] = second compound 0.316 µM, first compound 0.316 µM
[30] = second compound 0.316 µM, first compound 1 µM
[31] = second compound 1 µM, first compound 0.316 µM
[32] = second compound 1 µM, first compound 1 µM
[33] = second compound 3.16 µM, first compound 0.316 µM
[34] = second compound 3.16 µM, first compound 1 µM
[35] = second compound 10 µM, first compound 0.316 µM
[36] = second compound 10 µM, first compound 1 µM
[37] = second compound 0.0316 µM, first compound 3.16 µM
[38] = second compound 0.0316 µM, first compound 10 µM
[39] = second compound 0.1 µM, first compound 3.16 µM
[40] = second compound 0.1 µM, first compound 10 µM
[41] = second compound 0.316 µM, first compound 3.16 µM
[42] = second compound 0.316 µM, first compound 10 µM
[43] = second compound 1 µM, first compound 3.16 µM
[44] = second compound 1 µM, first compound 10 µM
[45] = second compound 3.16 µM, first compound 3.16 µM
[46] = second compound 3.16 µM, first compound 10 µM
[47] = second compound 10 µM, first compound 3.16 µM
[48] = second compound 10 µM, first compound 10 µM
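Note: spheroids exposed to compounds for 7 days.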

Compound: CC[C@@]1(O)C(=O)OCc2c1cc1n(c2=O)Cc2cc3c(CN(C)C)c(O)ccc3nc2-1 + Cc1cccc(N(C)C(=O)C2C(O)CCN2c2nc(C)cc(C(F)(F)F)c2C#N)c1
- IC50 (second compound 0.0316 µM): > 0.1 µM
- IC50 (second compound 0.1 µM): > 0.1 µM
- IC50 (second compound 0.316 µM): > 0.1 µM
- IC50 (second compound 1 µM): > 0.1 µM
- IC50 (second compound 3.16 µM): > 0.1 µM
- IC50 (second compound 10 µM): > 0.1 µM
- viability, T/C (second compound 0.0316 µM, first compound 0.000316 µM): 112%
- viability, T/C (second compound 0.0316 µM, first compound 0.001 µM): 103%
- viability, T/C [1]: 98%
- viability, T/C [2]: 93.5%
- viability, T/C [3]: 72%
- viability, T/C [4]: 65.5%
- viability, T/C (second compound 0.1 µM, first compound 0.000316 µM): 111%
- viability, T/C (second compound 0.1 µM, first compound 0.001 µM): 112%
- viability, T/C [5]: 93.4%
- viability, T/C [6]: 93%
- viability, T/C [7]: 73.2%
- viability, T/C [8]: 68.1%
- viability, T/C (second compound 0.316 µM, first compound 0.000316 µM): 117%
- viability, T/C (second compound 0.316 µM, first compound 0.001 µM): 104%
- viability, T/C [9]: 103%
- viability, T/C [10]: 100%
- viability, T/C [11]: 74.9%
- viability, T/C [12]: 62.4%
- viability, T/C (second compound 1 µM, first compound 0.000316 µM): 100%
- viability, T/C (second compound 1 µM, first compound 0.001 µM): 98%
- viability, T/C [13]: 99.5%
- viability, T/C [14]: 94.2%
- viability, T/C [15]: 81.8%
- viability, T/C [16]: 61.7%
- viability, T/C (second compound 3.16 µM, first compound 0.000316 µM): 108%
- viability, T/C (second compound 3.16 µM, first compound 0.001 µM): 99.3%
- viability, T/C [17]: 98.8%
- viability, T/C [18]: 101%
- viability, T/C [19]: 71.6%
- viability, T/C [20]: 55.3%
- viability, T/C (second compound 10 µM, first compound 0.000316 µM): 99.9%
- viability, T/C (second compound 10 µM, first compound 0.001 µM): 95.3%
- viability, T/C [21]: 90.5%
- viability, T/C [22]: 87.6%
- viability, T/C [23]: 83%
- viability, T/C [24]: 63.6%

Compound: CCc1c2c(nc3ccc(O)cc13)-c1cc3c(c(=O)n1C2)COC(=O)[C@]3(O)CC + Cc1cccc(N(C)C(=O)C2C(O)CCN2c2nc(C)cc(C(F)(F)F)c2C#N)c1
- IC50 (second compound 0.0316 µM): 0.0963 µM
- IC50 (second compound 0.1 µM): 0.0668 µM
- IC50 (second compound 0.316 µM): 0.0752 µM
- IC50 (second compound 1 µM): 0.0588 µM
- IC50 (second compound 3.16 µM): 0.053 µM
- IC50 (second compound 10 µM): 0.0568 µM
- viability, T/C [1]: 80.9%
- viability, T/C [2]: 53.6%
- viability, T/C [3]: 53.3%
- viability, T/C [4]: 52.6%
- viability, T/C [25]: 39.9%
- viability, T/C [26]: 5.13%
- viability, T/C [5]: 80.6%
- viability, T/C [6]: 64.4%
- viability, T/C [7]: 50.5%
- viability, T/C [8]: 49.4%
- viability, T/C [27]: 35.3%
- viability, T/C [28]: 4.47%
- viability, T/C [9]: 82.7%
- viability, T/C [10]: 68.3%
- viability, T/C [11]: 55.5%
- viability, T/C [12]: 47.4%
- viability, T/C [29]: 34.5%
- viability, T/C [30]: 4.66%
- viability, T/C [13]: 79.6%
- viability, T/C [14]: 65.8%
- viability, T/C [15]: 51.8%
- viability, T/C [16]: 46.8%
- viability, T/C [31]: 34.5%
- viability, T/C [32]: 4.77%
- viability, T/C [17]: 98%
- viability, T/C [18]: 62.3%
- viability, T/C [19]: 51.7%
- viability, T/C [20]: 50.7%
- viability, T/C [33]: 28.6%
- viability, T/C [34]: 4.41%
- viability, T/C [21]: 80.2%
- viability, T/C [22]: 64.9%
- viability, T/C [23]: 52.2%
- viability, T/C [24]: 46.4%
- viability, T/C [35]: 30.1%
- viability, T/C [36]: 4.59%

Compound: Nc1ccn(C2OC(CO)C(O)C2(F)F)c(=O)n1 (stereo not drawn) + Cc1cccc(N(C)C(=O)C2C(O)CCN2c2nc(C)cc(C(F)(F)F)c2C#N)c1
- IC50 (second compound 0.0316 µM): 5.14 µM
- IC50 (second compound 0.1 µM): > 10 µM
- IC50 (second compound 0.316 µM): 4.24 µM
- IC50 (second compound 1 µM): 4.15 µM
- IC50 (second compound 3.16 µM): 3.06 µM
- IC50 (second compound 10 µM): 7.26 µM
- viability, T/C [3]: 59.3%
- viability, T/C [4]: 55.2%
- viability, T/C [25]: 55.2%
- viability, T/C [26]: 52.1%
- viability, T/C [37]: 56.2%
- viability, T/C [38]: 42.8%
- viability, T/C [7]: 70.7%
- viability, T/C [8]: 56%
- viability, T/C [27]: 57.5%
- viability, T/C [28]: 58.2%
- viability, T/C [39]: 55.3%
- viability, T/C [40]: 45.9%
- viability, T/C [11]: 67.2%
- viability, T/C [12]: 58.5%
- viability, T/C [29]: 55%
- viability, T/C [30]: 57.6%
- viability, T/C [41]: 53.1%
- viability, T/C [42]: 45.4%
- viability, T/C [15]: 65.1%
- viability, T/C [16]: 55.4%
- viability, T/C [31]: 58.2%
- viability, T/C [32]: 57.4%
- viability, T/C [43]: 53.1%
- viability, T/C [44]: 42.8%
- viability, T/C [19]: 66%
- viability, T/C [20]: 56.7%
- viability, T/C [33]: 52%
- viability, T/C [34]: 56.8%
- viability, T/C [45]: 54.5%
- viability, T/C [46]: 42.8%
- viability, T/C [23]: 68.9%
- viability, T/C [24]: 55.5%
- viability, T/C [35]: 59.3%
- viability, T/C [36]: 56%
- viability, T/C [47]: 58%
- viability, T/C [48]: 45.1%

Compound: O=C(c1cc(Cc2n[nH]c(=O)c3ccccc23)ccc1F)N1CCN(C(=O)C2CC2)CC1 + Cc1cccc(N(C)C(=O)C2C(O)CCN2c2nc(C)cc(C(F)(F)F)c2C#N)c1
- IC50 (second compound 0.0316 µM): > 10 µM
- IC50 (second compound 0.1 µM): > 10 µM
- IC50 (second compound 0.316 µM): > 10 µM
- IC50 (second compound 1 µM): > 10 µM
- IC50 (second compound 3.16 µM): > 10 µM
- IC50 (second compound 10 µM): > 10 µM
- viability, T/C [3]: 85.9%
- viability, T/C [4]: 99.1%
- viability, T/C [25]: 97.2%
- viability, T/C [26]: 94.2%
- viability, T/C [37]: 94.6%
- viability, T/C [38]: 76.3%
- viability, T/C [7]: 97.3%
- viability, T/C [8]: 104%
- viability, T/C [27]: 100%
- viability, T/C [28]: 102%
- viability, T/C [39]: 94.7%
- viability, T/C [40]: 83.1%
- viability, T/C [11]: 104%
- viability, T/C [12]: 91.7%
- viability, T/C [29]: 91.9%
- viability, T/C [30]: 99.6%
- viability, T/C [41]: 98%
- viability, T/C [42]: 75.9%
- viability, T/C [15]: 109%
- viability, T/C [16]: 84.3%
- viability, T/C [31]: 89.1%
- viability, T/C [32]: 94.1%
- viability, T/C [43]: 94.6%
- viability, T/C [44]: 86.1%
- viability, T/C [19]: 92%
- viability, T/C [20]: 89.7%
- viability, T/C [33]: 99.1%
- viability, T/C [34]: 89.2%
- viability, T/C [45]: 103%
- viability, T/C [46]: 82.9%
- viability, T/C [23]: 98%
- viability, T/C [24]: 109%
- viability, T/C [35]: 109%
- viability, T/C [36]: 86.1%
- viability, T/C [47]: 104%
- viability, T/C [48]: 79.9%

Reference: PubChem BioAssay AID1963832 (Molecular Pharmacology Branch, DTP, NCI, 2024)
